Results reported in ChEMBL document CHEMBL5696443 (Clin Cancer Res, 2016).
pIC50: −log10 of the molar value. Active and inactive are the calls of the source. The calls are words filed in the database; no cut-off is given here.

Experiments:
[1] = target: Calcium/calmodulin-dependent protein kinase type II subunit beta (Homo sapiens) (UniProt Q13554); assay: Inhibition of human CAMK2b at 1 uM using KKALRRQETVDAL as substrate in presence of [gamma33P]-ATP by HotSpot assay relative to control
[2] = test system: EML4-ALK (Homo sapiens), Q9UM73+Q9HC35 [UNDEFINED MUTATION]; conditions: BaF3, time 3-5 weeks
[3] = target: Receptor tyrosine-protein kinase erbB-2 (Homo sapiens, UniProt P04626); assay: Inhibition of human ERBB2 at 1 uM using poly (Glu, Tyr)4:1 as substrate in presence of [gamma33P]-ATP by HotSpot assay relative to control
[4] = target: Tyrosine-protein kinase CSK (Homo sapiens, UniProt P41240); assay: Inhibition of human CSK at 1 uM using poly (Glu, Tyr)4:1 as substrate in presence of [gamma33P]-ATP by HotSpot assay relative to control
[5] = test system: EML4-ALK (Homo sapiens), Q9UM73+Q9HC35 [C1156Y]; conditions: BaF3, time 3-5 weeks
[6] = target: Serine/threonine-protein kinase MARK1 (Homo sapiens, UniProt Q9P0L2); assay: Inhibition of human MARK1 using KKKVSRSGLYRSPSMPENLNRPR as substrate in presence of [gamma33P]-ATP by HotSpot assay
[7] = target: Focal adhesion kinase 1 (Homo sapiens, UniProt Q05397); assay: Inhibition of human FAK using poly (Glu, Tyr)4:1 as substrate in presence of [gamma33P]-ATP by HotSpot assay
[8] = test system: Epidermal growth factor receptor (Homo sapiens), P00533 [UNDEFINED MUTATION]; conditions: BaF3, time 72.0 hrs
[9] = target: Tyrosine-protein kinase receptor UFO (Homo sapiens) (UniProt P30530); assay: Inhibition of human AXL at 1 uM using poly (Glu, Tyr)4:1 as substrate in presence of [gamma33P]-ATP by HotSpot assay relative to control
[10] = target: Serine/threonine-protein kinase WNK3 (Homo sapiens) (UniProt Q9BYP7); assay: Inhibition of human WNK3 at 1 uM using MBP as substrate in presence of [gamma33P]-ATP by HotSpot assay relative to control
[11] = target: Dual specificity tyrosine-phosphorylation-regulated kinase 1B (Homo sapiens) (UniProt Q9Y463); assay: Inhibition of human DYRK1B at 1 uM using RRRFRPASPLRGPPK as substrate in presence of [gamma33P]-ATP by HotSpot assay relative to control
[12] = test system: EML4-ALK (Homo sapiens), Q9UM73+Q9HC35 [S1206Y]; conditions: BaF3, dose 500.0 nmol/L, time 3-5 weeks
[13] = target: Casein kinase II subunit alpha (Homo sapiens) (UniProt P68400); assay: Inhibition of human CK2a at 1 uM using RRRDDDSDDD as substrate in presence of [gamma33P]-ATP by HotSpot assay relative to control
[14] = target: Ephrin type-A receptor 4 (Homo sapiens) (UniProt P54764); assay: Inhibition of human EPHA4 at 1 uM using poly (Glu, Tyr)4:1 as substrate in presence of [gamma33P]-ATP by HotSpot assay relative to control
[15] = target: Tyrosine-protein kinase JAK2 (Homo sapiens, UniProt O60674); assay: Inhibition of human JAK2 using poly (Glu, Tyr)4:1 as substrate in presence of [gamma33P]-ATP by HotSpot assay
[16] = test system: EML4-ALK (Homo sapiens), Q9UM73+Q9HC35 [F1174C]; conditions: BaF3, dose 200.0 nmol/L, time 3-5 weeks
[17] = target: CDK6/cyclin D1 (Homo sapiens) (UniProt P24385+Q00534); assay: Inhibition of human CDK6/CyclinD1 at 1 uM using RB protein as substrate in presence of [gamma33P]-ATP by HotSpot assay relative to control; format: protein-complex assay
[18] = target: SRSF protein kinase 3 (Homo sapiens) (UniProt Q9UPE1); assay: Inhibition of human SRPK3 at 1 uM using GRSRSRSRSR as substrate in presence of [gamma33P]-ATP by HotSpot assay relative to control
[19] = target: Serine/threonine-protein kinase 17A (Homo sapiens) (UniProt Q9UEE5); assay: Inhibition of human STK17A at 1 uM using KKLNRTLSFAEPG as substrate in presence of [gamma33P]-ATP by HotSpot assay relative to control
[20] = target: Ephrin type-A receptor 5 (Homo sapiens) (UniProt P54756); assay: Inhibition of human EPHA5 at 1 uM using poly (Glu, Tyr)4:1 as substrate in presence of [gamma33P]-ATP by HotSpot assay relative to control
[21] = target: Protein kinase C epsilon type (Homo sapiens) (UniProt Q02156); assay: Inhibition of human PKCepsilon at 1 uM using ERMRPRKRQGSVRRRV as substrate in presence of [gamma33P]-ATP by HotSpot assay relative to control
[22] = test system: EML4-ALK (Homo sapiens), Q9UM73+Q9HC35 [L1152R]; conditions: BaF3, time 3-5 weeks
[23] = target: Insulin receptor (Homo sapiens, UniProt P06213)
Description: Inhibition of INSR phosphorylation in insulin-stimulated human H4-II-E cells preincubated with compound for 30 mins followed by insulin stimulation and measured after 10 mins by immunoblot analysis

[24] = target: Hepatocyte growth factor receptor (Homo sapiens, UniProt P08581); assay: Inhibition of human MET at 1 uM using poly (Glu, Tyr)4:1 as substrate in presence of [gamma33P]-ATP by HotSpot assay relative to control
[25] = organism: Homo sapiens; assay: Inhibition of human PKA at 1 uM using LCGRTGRRNSI as substrate in presence of [gamma33P]-ATP by HotSpot assay relative to control
[26] = target: G protein-coupled receptor kinase 5 (Homo sapiens) (UniProt P34947); assay: Inhibition of human GRK5 at 1 uM using casein as substrate in presence of [gamma33P]-ATP by HotSpot assay relative to control
[27] = target: Aurora kinase B (Homo sapiens, UniProt Q96GD4); assay: Inhibition of human AURKB using H-LRRASLG as substrate in presence of [gamma33P]-ATP by HotSpot assay
[28] = target: G protein-coupled receptor kinase 6 (Homo sapiens) (UniProt P43250); assay: Inhibition of human GRK6 at 1 uM using casein as substrate in presence of [gamma33P]-ATP by HotSpot assay relative to control
[29] = target: Calcium/calmodulin-dependent protein kinase type IV (Homo sapiens) (UniProt Q16566); assay: Inhibition of human CAMK4 at 1 uM using KKLNRTLSFAEPG as substrate in presence of [gamma33P]-ATP by HotSpot assay relative to control

Chain of G protein-coupled receptor kinase 5 (Homo sapiens) (P34947 whole entry, looked up): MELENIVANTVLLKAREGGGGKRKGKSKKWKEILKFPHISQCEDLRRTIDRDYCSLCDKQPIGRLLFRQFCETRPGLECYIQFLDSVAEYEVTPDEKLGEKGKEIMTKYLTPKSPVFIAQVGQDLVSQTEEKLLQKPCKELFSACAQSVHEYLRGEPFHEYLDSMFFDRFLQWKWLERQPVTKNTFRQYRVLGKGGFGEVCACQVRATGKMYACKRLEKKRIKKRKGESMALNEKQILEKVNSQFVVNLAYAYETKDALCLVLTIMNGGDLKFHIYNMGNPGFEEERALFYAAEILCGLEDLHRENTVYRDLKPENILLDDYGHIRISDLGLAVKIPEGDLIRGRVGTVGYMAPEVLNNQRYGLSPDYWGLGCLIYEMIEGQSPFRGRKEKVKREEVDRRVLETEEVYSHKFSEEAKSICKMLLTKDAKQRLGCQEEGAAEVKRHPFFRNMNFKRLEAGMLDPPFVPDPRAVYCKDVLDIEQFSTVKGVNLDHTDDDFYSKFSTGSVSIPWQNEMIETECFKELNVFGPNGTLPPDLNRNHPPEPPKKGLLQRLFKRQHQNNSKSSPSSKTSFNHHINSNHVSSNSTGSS
Chain of Ephrin type-A receptor 4 (Homo sapiens) (P54764 whole entry): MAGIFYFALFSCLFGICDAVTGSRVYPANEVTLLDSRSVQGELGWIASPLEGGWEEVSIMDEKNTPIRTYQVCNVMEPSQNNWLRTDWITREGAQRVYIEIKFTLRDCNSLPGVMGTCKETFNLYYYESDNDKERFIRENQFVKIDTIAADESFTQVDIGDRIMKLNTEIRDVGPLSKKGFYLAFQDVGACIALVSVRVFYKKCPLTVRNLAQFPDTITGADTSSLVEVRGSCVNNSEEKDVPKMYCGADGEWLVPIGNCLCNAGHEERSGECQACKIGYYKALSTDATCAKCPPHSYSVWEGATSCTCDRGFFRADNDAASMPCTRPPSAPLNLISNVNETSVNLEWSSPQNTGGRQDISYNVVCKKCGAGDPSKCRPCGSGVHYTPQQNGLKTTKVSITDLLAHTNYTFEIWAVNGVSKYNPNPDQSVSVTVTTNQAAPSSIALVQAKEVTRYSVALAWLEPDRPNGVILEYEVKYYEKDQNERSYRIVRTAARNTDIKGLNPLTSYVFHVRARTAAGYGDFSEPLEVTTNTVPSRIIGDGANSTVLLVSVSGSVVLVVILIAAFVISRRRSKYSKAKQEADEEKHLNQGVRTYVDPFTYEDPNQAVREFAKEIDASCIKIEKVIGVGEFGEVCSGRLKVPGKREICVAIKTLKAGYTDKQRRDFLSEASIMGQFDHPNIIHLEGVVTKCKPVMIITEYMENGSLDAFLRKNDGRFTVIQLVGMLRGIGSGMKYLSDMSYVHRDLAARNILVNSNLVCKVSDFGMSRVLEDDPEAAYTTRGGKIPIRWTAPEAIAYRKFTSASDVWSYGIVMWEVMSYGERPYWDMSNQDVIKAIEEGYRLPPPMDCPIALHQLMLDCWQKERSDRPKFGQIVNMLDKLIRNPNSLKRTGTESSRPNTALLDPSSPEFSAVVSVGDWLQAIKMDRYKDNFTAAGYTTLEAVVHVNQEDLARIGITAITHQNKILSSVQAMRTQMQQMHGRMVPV
Chain of Dual specificity tyrosine-phosphorylation-regulated kinase 1B (Homo sapiens) (Q9Y463 whole entry, looked up): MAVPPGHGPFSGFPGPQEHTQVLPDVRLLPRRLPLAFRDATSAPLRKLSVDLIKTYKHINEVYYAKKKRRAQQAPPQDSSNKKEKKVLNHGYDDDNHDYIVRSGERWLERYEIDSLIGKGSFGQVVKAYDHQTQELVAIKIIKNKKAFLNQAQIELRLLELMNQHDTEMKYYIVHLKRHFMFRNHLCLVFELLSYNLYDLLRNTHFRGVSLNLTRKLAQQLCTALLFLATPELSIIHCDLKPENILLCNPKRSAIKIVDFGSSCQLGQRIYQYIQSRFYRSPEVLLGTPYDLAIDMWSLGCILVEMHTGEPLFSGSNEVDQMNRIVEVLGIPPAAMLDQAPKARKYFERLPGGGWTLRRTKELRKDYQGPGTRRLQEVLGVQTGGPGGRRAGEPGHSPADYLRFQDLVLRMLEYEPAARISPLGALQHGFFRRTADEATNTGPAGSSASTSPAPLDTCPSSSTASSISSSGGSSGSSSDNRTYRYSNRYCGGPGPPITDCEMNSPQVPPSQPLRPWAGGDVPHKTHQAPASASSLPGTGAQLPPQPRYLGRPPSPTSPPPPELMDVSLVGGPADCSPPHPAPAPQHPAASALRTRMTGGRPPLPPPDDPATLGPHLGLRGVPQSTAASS
Chain of EML4-ALK (Homo sapiens), Q9UM73+Q9HC35 [UNDEFINED MUTATION] (Q9HC35 whole entry, looked up, change not shown): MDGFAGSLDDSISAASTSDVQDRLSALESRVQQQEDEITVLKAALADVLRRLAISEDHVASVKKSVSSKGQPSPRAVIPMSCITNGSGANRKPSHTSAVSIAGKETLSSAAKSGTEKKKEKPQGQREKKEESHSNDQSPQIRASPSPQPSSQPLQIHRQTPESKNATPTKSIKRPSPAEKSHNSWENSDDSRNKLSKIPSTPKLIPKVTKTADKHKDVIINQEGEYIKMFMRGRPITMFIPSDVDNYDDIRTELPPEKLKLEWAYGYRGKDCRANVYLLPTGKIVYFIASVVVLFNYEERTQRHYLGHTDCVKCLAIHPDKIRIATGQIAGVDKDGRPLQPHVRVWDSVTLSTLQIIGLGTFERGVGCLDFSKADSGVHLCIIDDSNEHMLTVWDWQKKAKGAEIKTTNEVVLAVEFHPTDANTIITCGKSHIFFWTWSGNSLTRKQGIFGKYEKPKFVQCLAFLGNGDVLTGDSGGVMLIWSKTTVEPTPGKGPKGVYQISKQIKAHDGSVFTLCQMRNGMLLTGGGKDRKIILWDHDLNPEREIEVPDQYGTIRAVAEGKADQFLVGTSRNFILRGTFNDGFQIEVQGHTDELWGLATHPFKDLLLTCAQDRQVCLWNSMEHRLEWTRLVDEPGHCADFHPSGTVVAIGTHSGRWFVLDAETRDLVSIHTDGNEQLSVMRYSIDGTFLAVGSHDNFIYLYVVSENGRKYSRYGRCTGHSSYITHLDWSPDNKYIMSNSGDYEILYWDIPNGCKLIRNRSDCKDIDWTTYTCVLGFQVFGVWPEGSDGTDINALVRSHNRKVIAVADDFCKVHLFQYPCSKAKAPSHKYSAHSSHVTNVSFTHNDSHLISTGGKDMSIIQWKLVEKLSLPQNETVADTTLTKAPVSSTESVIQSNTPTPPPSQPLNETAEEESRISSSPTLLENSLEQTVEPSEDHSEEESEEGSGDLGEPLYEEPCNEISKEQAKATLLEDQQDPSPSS
Chain of EML4-ALK (Homo sapiens), Q9UM73+Q9HC35 [UNDEFINED MUTATION] (Q9UM73 whole entry, looked up, change not shown): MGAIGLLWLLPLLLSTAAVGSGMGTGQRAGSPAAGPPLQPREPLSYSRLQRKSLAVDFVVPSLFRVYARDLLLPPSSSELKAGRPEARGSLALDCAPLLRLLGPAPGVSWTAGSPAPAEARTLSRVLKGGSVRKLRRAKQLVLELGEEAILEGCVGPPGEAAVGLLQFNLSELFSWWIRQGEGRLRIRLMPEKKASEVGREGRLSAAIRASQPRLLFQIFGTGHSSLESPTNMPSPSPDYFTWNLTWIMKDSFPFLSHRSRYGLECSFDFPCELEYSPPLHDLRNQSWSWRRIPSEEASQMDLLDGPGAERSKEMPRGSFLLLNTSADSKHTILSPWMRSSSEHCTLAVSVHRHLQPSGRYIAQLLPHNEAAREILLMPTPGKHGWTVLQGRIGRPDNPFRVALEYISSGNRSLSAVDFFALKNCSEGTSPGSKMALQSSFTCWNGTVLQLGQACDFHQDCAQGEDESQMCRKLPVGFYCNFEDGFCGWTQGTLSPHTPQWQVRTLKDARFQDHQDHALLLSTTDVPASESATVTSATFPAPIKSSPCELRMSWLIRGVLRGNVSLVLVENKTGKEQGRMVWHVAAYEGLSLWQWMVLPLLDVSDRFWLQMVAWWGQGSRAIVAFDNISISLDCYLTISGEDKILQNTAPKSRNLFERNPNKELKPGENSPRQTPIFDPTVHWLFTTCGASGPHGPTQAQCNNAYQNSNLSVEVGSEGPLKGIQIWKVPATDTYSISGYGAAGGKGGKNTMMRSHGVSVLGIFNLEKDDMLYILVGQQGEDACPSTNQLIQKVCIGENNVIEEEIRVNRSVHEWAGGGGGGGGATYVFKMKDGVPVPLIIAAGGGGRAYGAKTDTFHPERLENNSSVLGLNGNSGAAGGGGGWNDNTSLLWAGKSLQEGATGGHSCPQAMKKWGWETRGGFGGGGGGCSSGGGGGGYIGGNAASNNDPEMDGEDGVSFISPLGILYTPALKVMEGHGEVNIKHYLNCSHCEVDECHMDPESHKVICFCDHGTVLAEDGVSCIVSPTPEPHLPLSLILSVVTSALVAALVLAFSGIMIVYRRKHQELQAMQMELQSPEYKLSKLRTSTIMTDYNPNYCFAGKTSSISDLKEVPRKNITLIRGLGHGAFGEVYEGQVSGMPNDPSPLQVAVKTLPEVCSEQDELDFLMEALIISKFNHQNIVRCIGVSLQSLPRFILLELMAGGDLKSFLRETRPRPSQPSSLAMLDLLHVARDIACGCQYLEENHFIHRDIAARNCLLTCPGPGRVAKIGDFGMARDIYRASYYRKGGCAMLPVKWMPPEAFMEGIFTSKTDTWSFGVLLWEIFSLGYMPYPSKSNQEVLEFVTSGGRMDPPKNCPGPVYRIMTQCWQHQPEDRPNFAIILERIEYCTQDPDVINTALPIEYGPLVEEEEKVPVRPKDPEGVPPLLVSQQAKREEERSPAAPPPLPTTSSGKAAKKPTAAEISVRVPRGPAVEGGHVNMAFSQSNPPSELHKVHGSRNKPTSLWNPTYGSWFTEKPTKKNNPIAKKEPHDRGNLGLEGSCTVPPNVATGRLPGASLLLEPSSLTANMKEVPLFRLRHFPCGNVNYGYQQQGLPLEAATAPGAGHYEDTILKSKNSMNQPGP
Chain of EML4-ALK (Homo sapiens), Q9UM73+Q9HC35 [C1156Y] (Q9UM73 whole entry C1156Y): as the sequence (Q9UM73 whole entry, looked up, change not shown) above, with C1156Y counted along it
Chain of EML4-ALK (Homo sapiens), Q9UM73+Q9HC35 [C1156Y] (Q9HC35 whole entry partner): as the sequence (Q9HC35 whole entry, looked up, change not shown) above

COc1cc(N2CCC(N3CCN(C)CC3)CC2)ccc1Nc1ncc(Cl)c(Nc2ccccc2P(C)(C)=O)n1 [BRIGATINIB]
inhibition [1]: < 90% | IC90 [2]: 416 nM | inhibition [3]: < 90% | inhibition [4]: < 90% | IC90 [5]: 129 nM | pIC50 [6]: 6.90 | pIC50 [7]: 8.41 | IC90 [8]: 2460 nM | inhibition [9]: < 90% | inhibition [10]: < 90% | inhibition [11]: < 90% | inhibition [12]: Active | inhibition [13]: < 90% | inhibition [14]: < 90% | pIC50 [15]: 6.81 | inhibition [16]: inactive | inhibition [17]: < 90% | inhibition [18]: < 90% | inhibition [19]: < 90% | inhibition [20]: < 90% | inhibition [21]: < 90% | IC90 [22]: 34 nM | pIC50 [23]: 5.03 | inhibition [24]: < 90% | inhibition [25]: < 90% | inhibition [26]: < 90% | pIC50 [27]: < 6.00 | inhibition [28]: < 90% | inhibition [29]: < 90%
